Measured values taken from patent US10550111B2, “Pyrimidine urea compound containing isoxazolines and use thereof” (SHENYANG SINOCHEM AGROCHEMICALS R&D CO., LTD, priority 2014, dated 2020).

Assays:
Format in all cases: in vivo
[1] = system: broad-leaf weeds and grass weeds; experiment: General screening of herbicidal activity in greenhouse; conditions: 1000 g a.i./hm^2;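 further: 0 means no visible effect and 100 means all weeds dead or not emerged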
Protocol: (§1) Determination of herbicidal activity of compounds of the present invention against weeds was carried out by the following procedures:
(§2) Seeds of monocotyledonous and dicotyledonous weeds were sown in nutrition soil in paper pot (7 cm diameter), covered with soil in 1 cm and grown in the greenhouse under good growth conditions (temperature, atmospheric humidity, water supply). The compounds of the present invention as emulsifiable concentrate, were applied in pre-emergence and post-emergence treatment by track sprayer (Engineer Research Ltd., pressure 1.95 kg/cm^2, volume 500 L/hm^2, track speed 1.48 km/h). Pre-emergence treatment was conducted after seeding 24 hours and post-emergence treatment was done when the respective weeds reached predetermined leaf stage (grass weed 2- to 3-leaf stage, broad-leaf weed 2- to 4-leaf stage), the state of growth of the respective weeds were visually observed to determine the growth inhibition rate (%) in accordance with the following evaluation standard.
(§3) Growth inhibition rate (%): 0=no discernible action: 100=all weeds dead or not emerged.

Zinnia elegans Jacq. = experiment: Bioassay of herbicidal activity in greenhouse (further screening)
Protocol: as §1, §2, §3

[2] = system: Echinochloa crus-galli (L.) Beauv.; experiment: as above
Protocol: as §1, §2, §3

[3] = system: Setaria glauca (L.) Beauv.; experiment: as above
Protocol: as §1, §2, §3

[4] = system: Abutilon theophrasti Medic.; experiment: as above
Protocol: as §1, §2, §3

Question: `Cn1c(C(F)(F)F)cc(=O)n(-c2ccc(Cl)c(C3=NOC(C)(C(=O)O)C3)c2)c1=O` (centres unmarked) [Compound 282] was tested. Which “pre-emergence and post-emergence herbicidal activity against broad-leaf weeds and grass weeds” value [1] did it give?
Answer: good

Question: With `Cn1c(C(F)(F)F)cc(=O)n(-c2ccc(Cl)c(C3=NOC(C)(COC(=O)CCl)C3)c2)c1=O` (centres unmarked) [Compound 328] as the molecule, how does the “pre-emergence and post-emergence herbicidal activity against broad-leaf weeds and grass weeds” value [1] read?
Answer: good

Question: With `Cn1c(C(F)(F)F)cc(=O)n(-c2ccc(Cl)c(C3=NOC(C)(COC(=O)CCc4ccccc4)C3)c2)c1=O` (centres unmarked) [Compound 333] as the molecule, how does the “pre-emergence and post-emergence herbicidal activity against broad-leaf weeds and grass weeds” value [1] read?
Answer: good

Question: Which results are given for `Cn1c(C(F)(F)F)cc(=O)n(-c2cc(C3=NOC(C)(COC(=O)CCl)C3)c(Cl)cc2F)c1=O` (centres unmarked) [Compound 50]?
Answer: Growth inhibition rate, Post-emergence treatment, Zinnia elegans Jacq. (Zinnia elegans Jacq.; dose 37.5 g a.i./hm^2): 98%; Growth inhibition rate, Post-emergence treatment, Zinnia elegans Jacq. (Zinnia elegans Jacq.; dose 150 g a.i./hm^2): 100%; Growth inhibition rate, Post-emergence treatment, Zinnia elegans Jacq. (Zinnia elegans Jacq.; dose 600 g a.i./hm^2): 100%; Growth inhibition rate, Pre-emergence treatment, Zinnia elegans Jacq. (Zinnia elegans Jacq.; dose 37.5 g a.i./hm^2): 0%; Growth inhibition rate, Pre-emergence treatment, Zinnia elegans Jacq. (Zinnia elegans Jacq.; dose 150 g a.i./hm^2): 30%; Growth inhibition rate, Pre-emergence treatment, Zinnia elegans Jacq. (Zinnia elegans Jacq.; dose 600 g a.i./hm^2): 90%; Growth inhibition rate, Post-emergence treatment, Echinochloa crus-galli (L.) Beauv. ([2]; dose 37.5 g a.i./hm^2): 10%; Growth inhibition rate, Post-emergence treatment, Echinochloa crus-galli (L.) Beauv. ([2]; dose 150 g a.i./hm^2): 30%; Growth inhibition rate, Post-emergence treatment, Echinochloa crus-galli (L.) Beauv. ([2]; dose 600 g a.i./hm^2): 80%; Growth inhibition rate, Pre-emergence treatment, Echinochloa crus-galli (L.) Beauv. ([2]; dose 37.5 g a.i./hm^2): 0%; Growth inhibition rate, Pre-emergence treatment, Echinochloa crus-galli (L.) Beauv. ([2]; dose 150 g a.i./hm^2): 10%; Growth inhibition rate, Pre-emergence treatment, Echinochloa crus-galli (L.) Beauv. ([2]; dose 600 g a.i./hm^2): 80%; Growth inhibition rate, Post-emergence treatment, Setaria glauca (L.) Beauv. ([3]; dose 37.5 g a.i./hm^2): 15%; Growth inhibition rate, Post-emergence treatment, Setaria glauca (L.) Beauv. ([3]; dose 150 g a.i./hm^2): 65%; Growth inhibition rate, Post-emergence treatment, Setaria glauca (L.) Beauv. ([3]; dose 600 g a.i./hm^2): 98%; Growth inhibition rate, Pre-emergence treatment, Setaria glauca (L.) Beauv. ([3]; dose 37.5 g a.i./hm^2): 0%; Growth inhibition rate, Pre-emergence treatment, Setaria glauca (L.) Beauv. ([3]; dose 150 g a.i./hm^2): 30%; Growth inhibition rate, Pre-emergence treatment, Setaria glauca (L.) Beauv. ([3]; dose 600 g a.i./hm^2): 90%; Growth inhibition rate, Post-emergence treatment, Abutilon theophrasti Medic. ([4]; dose 37.5 g a.i./hm^2): 100%; Growth inhibition rate, Post-emergence treatment, Abutilon theophrasti Medic. ([4]; dose 150 g a.i./hm^2): 100%; Growth inhibition rate, Post-emergence treatment, Abutilon theophrasti Medic. ([4]; dose 600 g a.i./hm^2): 100%; Growth inhibition rate, Pre-emergence treatment, Abutilon theophrasti Medic. ([4]; dose 37.5 g a.i./hm^2): 0%; Growth inhibition rate, Pre-emergence treatment, Abutilon theophrasti Medic. ([4]; dose 150 g a.i./hm^2): 35%; Growth inhibition rate, Pre-emergence treatment, Abutilon theophrasti Medic. ([4]; dose 600 g a.i./hm^2): 100%; pre-emergence and post-emergence herbicidal activity against broad-leaf weeds and grass weeds [1]: good

Question: Which results are given for `COC(=O)C1(C)CC(c2cc(-n3c(=O)cc(C(F)(F)F)n(C)c3=O)c(F)cc2Cl)=NO1` (centres unmarked) [Compound 5]?
Answer: Growth inhibition rate, Post-emergence treatment, Zinnia elegans Jacq. (Zinnia elegans Jacq.; dose 7.5 g a.i./hm^2): 40%; Growth inhibition rate, Post-emergence treatment, Zinnia elegans Jacq. (Zinnia elegans Jacq.; dose 15 g a.i./hm^2): 45%; Growth inhibition rate, Post-emergence treatment, Zinnia elegans Jacq. (Zinnia elegans Jacq.; dose 30.0 g a.i./hm^2): 98%; Growth inhibition rate, Post-emergence treatment, Zinnia elegans Jacq. (Zinnia elegans Jacq.; dose 60.0 g a.i./hm^2): 100%; Growth inhibition rate, Post-emergence treatment, Zinnia elegans Jacq. (Zinnia elegans Jacq.; dose 120.0 g a.i./hm^2): 100%; Growth inhibition rate, Post-emergence treatment, Echinochloa crus-galli (L.) Beauv. ([2]; dose 7.5 g a.i./hm^2): 45%; Growth inhibition rate, Post-emergence treatment, Echinochloa crus-galli (L.) Beauv. ([2]; dose 15 g a.i./hm^2): 95%; Growth inhibition rate, Post-emergence treatment, Echinochloa crus-galli (L.) Beauv. ([2]; dose 30.0 g a.i./hm^2): 100%; Growth inhibition rate, Post-emergence treatment, Echinochloa crus-galli (L.) Beauv. ([2]; dose 60.0 g a.i./hm^2): 100%; Growth inhibition rate, Post-emergence treatment, Echinochloa crus-galli (L.) Beauv. ([2]; dose 120.0 g a.i./hm^2): 100%; Growth inhibition rate, Post-emergence treatment, Setaria glauca (L.) Beauv. ([3]; dose 7.5 g a.i./hm^2): 60%; Growth inhibition rate, Post-emergence treatment, Setaria glauca (L.) Beauv. ([3]; dose 15 g a.i./hm^2): 65%; Growth inhibition rate, Post-emergence treatment, Setaria glauca (L.) Beauv. ([3]; dose 30.0 g a.i./hm^2): 100%; Growth inhibition rate, Post-emergence treatment, Setaria glauca (L.) Beauv. ([3]; dose 60.0 g a.i./hm^2): 100%; Growth inhibition rate, Post-emergence treatment, Setaria glauca (L.) Beauv. ([3]; dose 120.0 g a.i./hm^2): 100%; Growth inhibition rate, Post-emergence treatment, Abutilon theophrasti Medic. ([4]; dose 7.5 g a.i./hm^2): 100%; Growth inhibition rate, Post-emergence treatment, Abutilon theophrasti Medic. ([4]; dose 15 g a.i./hm^2): 100%; Growth inhibition rate, Post-emergence treatment, Abutilon theophrasti Medic. ([4]; dose 30.0 g a.i./hm^2): 100%; Growth inhibition rate, Post-emergence treatment, Abutilon theophrasti Medic. ([4]; dose 60.0 g a.i./hm^2): 100%; Growth inhibition rate, Post-emergence treatment, Abutilon theophrasti Medic. ([4]; dose 120.0 g a.i./hm^2): 100%; pre-emergence and post-emergence herbicidal activity against broad-leaf weeds and grass weeds [1]: good

Question: How did the “pre-emergence and post-emergence herbicidal activity against broad-leaf weeds and grass weeds” value [1] turn out when `Cn1c(C(F)(F)F)cc(=O)n(-c2cc(C3=NOC(C)(COC(=O)c4cc(Oc5ccc(C(F)(F)F)cc5Cl)ccc4[N+](=O)[O-])C3)c(Cl)cc2F)c1=O` (centres unmarked) [Compound 67] was run?
Answer: good

Question: With `Cn1c(C(F)(F)F)cc(=O)n(-c2ccc(Cl)c(C3=NOC(C)(COC(=O)c4cc(Oc5ccc(C(F)(F)F)cc5Cl)ccc4[N+](=O)[O-])C3)c2)c1=O` (centres unmarked) [Compound 345] as the molecule, how does the “pre-emergence and post-emergence herbicidal activity against broad-leaf weeds and grass weeds” value [1] read?
Answer: good

Question: How did the “pre-emergence and post-emergence herbicidal activity against broad-leaf weeds and grass weeds” value [1] turn out when `Cn1c(C(F)(F)F)cc(=O)n(-c2cc(C3=NOC(C)(CBr)C3)c(Cl)cc2F)c1=O` (centres unmarked) [Compound 99] was run?
Answer: good

Question: For `Cn1c(C(F)(F)F)cc(=O)n(-c2ccc(Cl)c(C3=NOC(C)(COC(=O)C4CC4)C3)c2)c1=O` (centres unmarked) [Compound 323], which “pre-emergence and post-emergence herbicidal activity against broad-leaf weeds and grass weeds” value [1] is on record?
Answer: good

Question: `CC(C)NC(=O)C1(C)CC(c2cc(-n3c(=O)cc(C(F)(F)F)n(C)c3=O)c(F)cc2Cl)=NO1` (centres unmarked) [Compound 26] was tested. Which “pre-emergence and post-emergence herbicidal activity against broad-leaf weeds and grass weeds” value [1] did it give?
Answer: good

Question: For `Cn1c(C(F)(F)F)cc(=O)n(-c2cc(C3=NOC(C)(CO)C3)c(Cl)cc2F)c1=O` (centres unmarked) [Compound 42], which “pre-emergence and post-emergence herbicidal activity against broad-leaf weeds and grass weeds” value [1] is on record?
Answer: good

Question: How did the “pre-emergence and post-emergence herbicidal activity against broad-leaf weeds and grass weeds” value [1] turn out when `Cn1c(C(F)(F)F)cc(=O)n(-c2ccc(Cl)c(C3=NOC(C)(COC(=O)CCCl)C3)c2)c1=O` (centres unmarked) [Compound 329] was run?
Answer: good

Question: For `CSCCC(=O)OCC1(C)CC(c2cc(-n3c(=O)cc(C(F)(F)F)n(C)c3=O)ccc2Cl)=NO1` (centres unmarked) [Compound 332], which “pre-emergence and post-emergence herbicidal activity against broad-leaf weeds and grass weeds” value [1] is on record?
Answer: good

Question: `CC(=O)OCC1(C)CC(c2cc(-n3c(=O)cc(C(F)(F)F)n(C)c3=O)ccc2Cl)=NO1` (centres unmarked) [Compound 321] was tested. Which “pre-emergence and post-emergence herbicidal activity against broad-leaf weeds and grass weeds” value [1] did it give?
Answer: good

Question: For `COC(=O)C1CCN(C(=O)C2(C)CC(c3cc(-n4c(=O)cc(C(F)(F)F)n(C)c4=O)c(F)cc3Cl)=NO2)CC1` (centres unmarked) [Compound 35], which “pre-emergence and post-emergence herbicidal activity against broad-leaf weeds and grass weeds” value [1] is on record?
Answer: good

Question: How did the “pre-emergence and post-emergence herbicidal activity against broad-leaf weeds and grass weeds” value [1] turn out when `CC(C)C(=O)OCC1(C)CC(c2cc(-n3c(=O)cc(C(F)(F)F)n(C)c3=O)ccc2Cl)=NO1` (centres unmarked) [Compound 324] was run?
Answer: good

Question: With `CN(C)S(=O)(=O)OCC1(C)CC(c2cc(-n3c(=O)cc(C(F)(F)F)n(C)c3=O)c(F)cc2Cl)=NO1` (centres unmarked) [Compound 96] as the molecule, how does the “pre-emergence and post-emergence herbicidal activity against broad-leaf weeds and grass weeds” value [1] read?
Answer: good

Question: How did the “pre-emergence and post-emergence herbicidal activity against broad-leaf weeds and grass weeds” value [1] turn out when `COc1c(Cl)ccc(Cl)c1C(=O)OCC1(C)CC(c2cc(-n3c(=O)cc(C(F)(F)F)n(C)c3=O)c(F)cc2Cl)=NO1` (centres unmarked) [Compound 66] was run?
Answer: good

Question: How did the “pre-emergence and post-emergence herbicidal activity against broad-leaf weeds and grass weeds” value [1] turn out when `Cn1c(C(F)(F)F)cc(=O)n(-c2ccc(Cl)c(C3=NOC(C)(COS(C)(=O)=O)C3)c2)c1=O` (centres unmarked) [Compound 366] was run?
Answer: good

Question: `CNC(=O)C1(C)CC(c2cc(-n3c(=O)cc(C(F)(F)F)n(C)c3=O)c(F)cc2Cl)=NO1` (centres unmarked) [Compound 23] was tested. Which “pre-emergence and post-emergence herbicidal activity against broad-leaf weeds and grass weeds” value [1] did it give?
Answer: good

Question: How did the “pre-emergence and post-emergence herbicidal activity against broad-leaf weeds and grass weeds” value [1] turn out when `Cn1c(C(F)(F)F)cc(=O)n(-c2ccc(Cl)c(C3=NOC(C)(CO)C3)c2)c1=O` (centres unmarked) [Compound 320] was run?
Answer: good
